From publication PMC8537327, “EGFR-Targeted Pentacyclic Triterpene Analogues for Glioma Therapy” (International Journal of Molecular Sciences, 2021)

How the values were obtained:
[1] = test system: U251 human glioblastoma cells; test: MTT cytotoxicity assay, U251 cells; assay type: cell-based; conditions: for IC50: MTT, 72 h; for anticancer activity against U251 cells: at 100 µM concentration
Description: (§1) U251, T98G (Japanese Collection of Research Bioresources Cell Bank), and U87 human glioblastoma cell lines were incubated in Dulbecco’s Modified Eagle Medium (DMEM)/Ham’s F12 (Wako Pure Chemical Industries, Osaka, Japan), Eagle’s Minimum Essential Medium (EMEM; Wako Pure Chemical Industries, Osaka, Japan), and DMEM (Gibco/Thermo Fisher Scientific, Waltham, MA, USA) respectively, and supplemented with 10% fetal bovine serum (FBS; Sigma Aldrich, MO, USA). Jurkat human leukemic T-cell line was cultured in Roswell Park Memorial Institute (RPMI) 1640 (Wako Pure Chemical Industries, Osaka, Japan), supplemented with 10% FBS. PBMCs (Precision Bioservices, Frederick, MD, USA) were incubated in RPMI 1640 and supplemented with 10% human serum AB (HS) (Gemini, Woodland, CA, USA). All media were supplemented with 89 μg/mL streptomycin (Meiji Seika Pharma, Tokyo, Japan) at 37 °C in a humid atmosphere and 5% CO2. For each experiment, growing cells were plated at 4 × 10^4 cells/mL and 6 × 10^5 cells/mL into 24-well and 96-well microtiter tissue culture plates (Iwaki brand Asahi Glass Co., Chiba, Japan) respectively and incubated for 72 h before the addition of the drugs (the optimal cell number for cytotoxicity assays was determined in preliminary experiments). The stock solutions of the compounds and cisplatin (Sigma-Aldrich, St. Louis, MO, USA) in concentrations between 0.1–10 mM were prepared in dimethyl sulfoxide (DMSO; Wako Pure Chemical Industries, Osaka, Japan) and in H2O respectively, then were added to fresh culture medium. The concentration of DMSO and H2O in the final culture medium was 1% which had no effect on the cell viability.
(§2) The MTT (Dojindo Molecular Technologies, Kumamoto, Japan) assay was carried out using the U251, T98G, U87, Jurkat, and PBMC cells to determine the cytotoxicity of compounds 1–13 and cisplatin as previously described in the literature with small modifications. Treated cells were incubated with different concentrations (1–100 µM) of the compounds for 72 h at 37 °C in the CO2 incubator. About 100 µL (1.1 mg/mL) of MTT solution was added to each well and after further incubation for 4 h, formazan crystals formed. At the end of this period, the medium was removed and the formazan crystals were solubilized by the addition of 100 μL DMSO to each well. The absorbance was read on an Infinite M1000 plate reader (Tecan, Mannedorf, Switzerland) at a wavelength of 550 nm with background subtraction at 630 nm. All experiments were performed in triplicate and IC50 values were defined as the drug concentrations that reduced absorbance to 50% of control values.

[2] = test system: T98G human glioblastoma cells; test: MTT cytotoxicity assay, T98G cells; assay type: cell-based; conditions: for IC50: MTT, 72 h; for anticancer activity against T98G cells: at 100 µM concentration
Description: as §1, §2

[3] = test system: U87 human glioblastoma cells; test: MTT cytotoxicity assay, U87 cells; assay type: cell-based; conditions: for IC50: MTT, 72 h; for anticancer activity against U87 cells: at 100 µM concentration
Description: as §1, §2

[4] = test system: Jurkat human leukemic T-cells; test: MTT cytotoxicity assay, Jurkat cells; assay type: cell-based; conditions: for IC50: MTT, 72 h; for SI (selectivity index): SI = IC50 for PBMCs/IC50 for Jurkat cells
Description: as §1, §2

[5] = test system: human peripheral blood mononuclear cells (PBMCs); test: MTT cytotoxicity assay, PBMCs; assay type: cell-based; conditions: 72 h
Description: as §1, §2

U251 cells = test: Annexin V/ethidium homodimer III staining, apoptotic/necrotic cell detection; assay type: cell-based, human; conditions: 24 h; IC50 concentration (Figure 4 legend), 5 μM (method)
Description: U251 cells (4 × 10^4 cells/well) were seeded in each well of a 24-well plate with compound 10 and cisplatin at 5 μM concentration for 24 h. Then, the apoptotic/necrotic/healthy cells detection kit protocol was applied according to the manufacturer’s instructions (PromoKine, Heidelberg, Germany) with few modifications. Briefly, the cells were washed twice with 1 × binding buffer and then treated with FITC-Annexin V (5 μL), ethidium homodimer III (5 μL), and Hoechst 33342 (5 μL) for 20 min at room temperature in a protected-light environment. After washing in 1 × binding buffer, cells were analyzed under an all-in-one fluorescence microscope Biorevo Fluorescence BZ-9000 (Keyence, Osaka, Japan). Healthy cells, apoptotic cells, late apoptotic or necrotic cells, and necrotic cells were counted as previously described.

K562 CML cell line = test system: K562 CML cell line; parameters: method as in PMID 31574910; conditions: previously reported by the authors; read-out: IC50, cytotoxic activity against K562 CML cell line; cited from earlier work
HER2 = biological target: T1, HER2 (Homo sapiens, UniProt P04626); test: Kinase profiling assay (ADP-Glo), HER2; assay type: biochemical; conditions: 30 µM concentration
T1 construct: purchased Promega Corporation
Description: (§3) The kinase profiling assay protocol (TK1 and TK-2) was applied according to the manufacturer‘s instructions (Promega Corporation, Madison, WI, USA) with few modifications. In regard to this protocol, the EGFR, HER2, HER4, IGF1R, InsR, KDR, PDGFR-α, PDGFR-β, ABL1, BRK, BTK, CSK, FYN A, LCK, LYN B, and SRC kinase stocks in the kinase strips were diluted with 95 µL 2.5x kinase buffer and their substrate stock in the substrate strip was diluted with 15 µL of 100 µM ATP solutions. Then, the kinase reactions were performed using 2 µL of the kinase working stocks, 2 µL of the ATP/substrate working stocks, and 1 µL of compound solution (0.1–100 µM) or 5% DMSO solution in the 384-well plate. After 4 h of incubation at room temperature, the activity of kinases was detected using ADP-Glo Kinase Assay (Promega Corporation, Madison, WI, USA) according to the manufacturer‘s protocol. Briefly, 5 µL of ADP-Glo reagent was added into each well of 384-well plate and the mixture was incubated at room temperature for 40 min to stop the kinase reaction and deplete any ATP remaining. Then, 10 µL Kinase Detection Reagent was added and the mixture was incubated for a further 30 min to convert the kinase-produced ADP to ATP, and then to light. […]

ABL1 = biological target: T2, ABL1 (Homo sapiens, UniProt P00519); test: Kinase profiling assay (ADP-Glo), ABL1; assay type: biochemical; conditions: 30 µM concentration
T2 construct: purchased Promega Corporation
Description: as §3

FYN A = biological target: T3, FYN A (Homo sapiens, UniProt P06241); test: Kinase profiling assay (ADP-Glo), FYN A; assay type: biochemical; conditions: 30 µM concentration
T3 construct: purchased Promega Corporation
Description: as §3

T2 sequence (P00519 whole entry): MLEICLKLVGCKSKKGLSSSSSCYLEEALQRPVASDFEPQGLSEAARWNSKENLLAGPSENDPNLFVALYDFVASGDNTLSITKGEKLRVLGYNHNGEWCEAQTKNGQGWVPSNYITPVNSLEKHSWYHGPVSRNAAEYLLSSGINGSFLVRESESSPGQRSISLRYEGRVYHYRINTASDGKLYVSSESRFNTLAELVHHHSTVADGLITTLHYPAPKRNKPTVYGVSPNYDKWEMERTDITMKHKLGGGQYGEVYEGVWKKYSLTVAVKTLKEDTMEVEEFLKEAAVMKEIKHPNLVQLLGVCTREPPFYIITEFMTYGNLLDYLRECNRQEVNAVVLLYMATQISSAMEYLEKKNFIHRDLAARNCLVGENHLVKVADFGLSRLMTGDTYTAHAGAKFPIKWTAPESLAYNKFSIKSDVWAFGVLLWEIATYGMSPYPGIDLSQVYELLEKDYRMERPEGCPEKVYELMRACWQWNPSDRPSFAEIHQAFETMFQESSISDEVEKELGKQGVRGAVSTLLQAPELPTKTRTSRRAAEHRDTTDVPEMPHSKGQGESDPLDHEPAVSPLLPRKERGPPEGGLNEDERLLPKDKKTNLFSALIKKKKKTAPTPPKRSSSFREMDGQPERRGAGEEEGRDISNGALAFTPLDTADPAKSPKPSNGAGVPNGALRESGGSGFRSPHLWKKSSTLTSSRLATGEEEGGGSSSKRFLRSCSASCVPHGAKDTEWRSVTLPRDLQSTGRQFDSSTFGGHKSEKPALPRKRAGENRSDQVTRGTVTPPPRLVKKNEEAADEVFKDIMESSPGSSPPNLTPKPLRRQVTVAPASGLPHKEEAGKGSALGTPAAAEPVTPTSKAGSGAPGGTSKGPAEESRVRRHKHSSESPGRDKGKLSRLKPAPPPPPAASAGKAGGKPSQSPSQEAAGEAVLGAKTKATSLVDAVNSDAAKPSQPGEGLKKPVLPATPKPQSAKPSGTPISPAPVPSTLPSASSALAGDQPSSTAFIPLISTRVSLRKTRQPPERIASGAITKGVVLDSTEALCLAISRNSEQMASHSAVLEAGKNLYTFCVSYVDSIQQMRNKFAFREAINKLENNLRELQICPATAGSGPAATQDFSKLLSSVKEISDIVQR
T1 sequence (P04626 23-1255): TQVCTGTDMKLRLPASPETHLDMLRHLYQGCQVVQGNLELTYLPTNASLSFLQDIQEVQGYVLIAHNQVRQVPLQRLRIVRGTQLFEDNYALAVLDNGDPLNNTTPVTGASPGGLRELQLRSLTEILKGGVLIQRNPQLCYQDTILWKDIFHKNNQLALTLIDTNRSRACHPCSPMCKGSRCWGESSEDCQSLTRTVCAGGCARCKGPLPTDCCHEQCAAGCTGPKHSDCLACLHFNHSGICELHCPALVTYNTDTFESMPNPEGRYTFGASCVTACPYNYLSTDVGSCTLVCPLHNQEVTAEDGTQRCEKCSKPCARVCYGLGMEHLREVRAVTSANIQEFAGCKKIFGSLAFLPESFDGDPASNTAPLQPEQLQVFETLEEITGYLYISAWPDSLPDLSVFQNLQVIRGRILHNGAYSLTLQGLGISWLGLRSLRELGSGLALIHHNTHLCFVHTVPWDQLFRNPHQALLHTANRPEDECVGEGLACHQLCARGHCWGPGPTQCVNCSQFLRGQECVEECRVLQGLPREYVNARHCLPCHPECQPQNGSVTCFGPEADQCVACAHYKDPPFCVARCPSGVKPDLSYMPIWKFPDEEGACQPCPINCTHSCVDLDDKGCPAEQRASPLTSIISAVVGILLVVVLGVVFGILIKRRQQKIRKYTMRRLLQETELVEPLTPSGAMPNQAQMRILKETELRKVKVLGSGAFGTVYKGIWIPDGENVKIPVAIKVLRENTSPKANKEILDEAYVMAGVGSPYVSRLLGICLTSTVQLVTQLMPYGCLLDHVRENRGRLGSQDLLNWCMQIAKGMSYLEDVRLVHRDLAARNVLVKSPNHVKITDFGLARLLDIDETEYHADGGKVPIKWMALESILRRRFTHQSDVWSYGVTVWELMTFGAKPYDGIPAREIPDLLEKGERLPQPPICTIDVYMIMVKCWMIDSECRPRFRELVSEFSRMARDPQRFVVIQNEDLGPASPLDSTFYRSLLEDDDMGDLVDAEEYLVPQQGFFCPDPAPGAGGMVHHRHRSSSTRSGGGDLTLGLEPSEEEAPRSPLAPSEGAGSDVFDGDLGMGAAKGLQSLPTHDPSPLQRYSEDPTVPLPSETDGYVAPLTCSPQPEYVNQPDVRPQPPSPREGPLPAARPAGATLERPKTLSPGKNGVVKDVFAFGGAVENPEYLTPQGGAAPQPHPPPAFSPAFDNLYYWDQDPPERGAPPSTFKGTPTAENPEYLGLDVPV
T3 sequence (P06241 whole entry): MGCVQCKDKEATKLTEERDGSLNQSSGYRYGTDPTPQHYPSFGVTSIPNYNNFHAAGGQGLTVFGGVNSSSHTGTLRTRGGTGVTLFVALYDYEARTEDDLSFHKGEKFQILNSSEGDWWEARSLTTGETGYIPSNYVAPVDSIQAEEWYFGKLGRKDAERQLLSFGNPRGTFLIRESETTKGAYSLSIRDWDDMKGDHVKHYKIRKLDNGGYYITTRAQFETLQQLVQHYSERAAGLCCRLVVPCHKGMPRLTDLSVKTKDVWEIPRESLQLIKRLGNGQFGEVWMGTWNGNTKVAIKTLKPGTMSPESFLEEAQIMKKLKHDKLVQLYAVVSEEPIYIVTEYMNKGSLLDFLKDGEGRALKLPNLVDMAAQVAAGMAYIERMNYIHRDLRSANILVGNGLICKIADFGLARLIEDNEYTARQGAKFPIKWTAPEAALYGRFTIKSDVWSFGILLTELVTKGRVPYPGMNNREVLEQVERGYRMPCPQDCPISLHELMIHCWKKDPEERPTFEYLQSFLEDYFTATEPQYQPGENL

SMILES | IC50 ([1]; Homo sapiens, U-251) [µM] | IC50 ([2]; Homo sapiens, T98G) [µM] | IC50 ([3]; Homo sapiens, U-87 MG) [µM] | further results
N.N.[Cl][Pt][Cl] [Cisplatin, cisplatin, reference compound] |  |  |  | IC50 [1]: 7.7 ± 2.81 µM; IC50 [2]: 16.9 ± 3.95 µM; IC50 [3]: 20.9 ± 5.16 µM; IC50 [4]: 4.87 ± 2 µM; SI (selectivity index) [4]: 7.12; IC50 [5]: 34.7 ± 7.11 µM; apoptosis in U251 cells (U251 cells): 13.83%
C[C@H]1[C@H](C)CC[C@]2(C(=O)OCc3ccccc3)CC[C@]3(C)C(=CC[C@@H]4[C@@]5(C)C[C@@H](O)[C@H](O)[C@@](C)(CO)[C@@H]5CC[C@]43C)[C@H]12 [Compound 1] | 13.2 ± 3.19 | 20.5 ± 4.34 | 22.6 ± 6.75 | 
C=C(C)[C@@H]1CC[C@]2(C(=O)OCc3ccccc3)CC[C@]3(C)[C@H](CC[C@@H]4[C@@]5(C)CC[C@H](O)C(C)(C)[C@@H]5CC[C@]43C)[C@@H]12 [Compound 2] | 24 ± 4.98 | > 100 | > 100 | 
CC1(C)[C@@H](O)CC[C@]2(C)[C@H]3C(=O)C=C4[C@@H]5C[C@@](C)(C(=O)OCc6ccccc6)CC[C@]5(C)CC[C@@]4(C)[C@]3(C)CC[C@@H]12 [Compound 3] | > 100 | > 100 | > 100 | anticancer activity against U251 cells [1]: no significant anticancer activity; anticancer activity against T98G cells [2]: no significant anticancer activity; anticancer activity against U87 cells [3]: no significant anticancer activity
CC1(C)CC[C@]2(C(=O)OCc3ccccc3)CC[C@]3(C)C(=CC[C@@H]4[C@@]5(C)CC[C@H](O)[C@@](C)(CO)[C@@H]5CC[C@]43C)[C@@H]2C1 [Compound 4] | 8.06 ± 2.04 | 9.86 ± 2.21 | 19.5 ± 4.52 | IC50 ([4]; Homo sapiens, Jurkat): 9.97 ± 3.24 µM; SI (selectivity index) [4]: 2.20; IC50 ([5]; Homo sapiens, PBMC): 21.9 ± 5.13 µM
C[C@H]1[C@H](C)CC[C@]2(C(=O)OCc3ccccc3)CC[C@]3(C)C(=CC[C@@H]4[C@@]5(C)CC[C@H](O)C(C)(C)[C@@H]5CC[C@]43C)[C@H]12 [Compound 6] | 16.7 ± 3.17 | 64.1 ± 7.36 | 79.7 ± 10.1 | 
CC1(C)CC[C@]2(C(=O)OCc3ccccc3)CC[C@]3(C)C(=CC[C@@H]4[C@@]5(C)CC[C@H](O)[C@@](C)(C=O)[C@@H]5CC[C@]43C)[C@@H]2C1 [Compound 7] | 18 ± 2.23 | 61.1 ± 5.13 | 60.9 ± 8.87 | 
CC1(C)CC[C@]2(C(=O)OCc3ccc(C#N)cc3)CC[C@]3(C)C(=CC[C@@H]4[C@@]5(C)CC[C@H](O)[C@@](C)(C=O)[C@@H]5CC[C@]43C)[C@@H]2C1 [Compound 9] | 14.1 ± 3.41 | 56.6 ± 6.08 | > 100 | IC50 (K562 CML cell line): 3.19 µM
CC1(C)CCC2(C(=O)O)CCC3(C)C(=CCC4C5(C)CCC(O)C(C)(CNCc6ccccc6)C5CCC43C)C2C1 (centres unmarked) [Compound 11, 9-((Benzylamino)methyl)-10-hydroxy-2,2,6a,6b,9,12a-hexamethyl-1,2,3,4,4a,5,6,6a,6b,7,8,8a,9,10,11,12,12a,12b,13,14b-icosahydropicene-4a-carboxylic acid] | > 100 | > 100 | > 100 | anticancer activity against U251 cells [1]: no significant anticancer activity; anticancer activity against T98G cells [2]: no significant anticancer activity; anticancer activity against U87 cells [3]: no significant anticancer activity; melting point: 246 to 249 °C
C[C@H](NCC1(C)C(O)CCC2(C)C1CCC1(C)C2CC=C2C3CC(C)(C)CCC3(C(=O)O)CCC21C)c1ccccc1 (stereo partly drawn) [Compound 12, 10-Hydroxy-2,2,6a,6b,9,12a-hexamethyl-9-[(((S)-1-phenylethyl)amino)methyl]-1,2,3,4,4a,5,6,6a,6b,7,8,8a,9,10,11,12,12a,12b,13,14b-icosahydropicene-4a-carboxylic acid] | > 100 | > 100 | > 100 | anticancer activity against U251 cells [1]: no significant anticancer activity; anticancer activity against T98G cells [2]: no significant anticancer activity; anticancer activity against U87 cells [3]: no significant anticancer activity; melting point: 240 to 243 °C
CC(=O)Nc1cccc(NCC2(C)C(O)CCC3(C)C2CCC2(C)C3CC=C3C4CC(C)(C)CCC4(C(=O)O)CCC32C)c1 (centres unmarked) [Compound 13, 9-[((3-Acetamidophenyl)amino)methyl]-10-hydroxy-2,2,6a,6b,9,12a-hexamethyl-1,2,3,4,4a,5,6,6a,6b,7,8,8a,9,10,11,12,12a,12b,13,14b-icosahydropicene-4a-carboxylic acid] | 9.95 ± 2.04 | 20.2 ± 5.47 | 21.7 ± 6.09 | IC50 ([4]; Homo sapiens, Jurkat): 12.1 ± 1.64 µM; SI (selectivity index) [4]: 3.57; IC50 ([5]; Homo sapiens, PBMC): 43.1 ± 8.32 µM; melting point: 265 to 267 °C
C#Cc1cccc(Nc2ncnc3cc(OCCOC)c(OCCOC)cc23)c1 [erlotinib, reference compound] |  |  |  | HER2 inhibition (HER2): moderate; ABL1 inhibition (ABL1): moderate; FYN A inhibition (FYN A): moderate
